Test results taken from patent US20220380319A1 (Bial - R&D Investments, S.A., priority 2019, published 2022).
Values after ≈ are worked out from the molar mass of the structure shown.

How the values were obtained:
acid ceramidase = target: T1, acid ceramidase (Homo sapiens, UniProt Q13510); test: Acid ceramidase inhibition, biochemical fluorescent assay with cell lysates overexpressing acid ceramidase, substrate Rbm14-12; conditions: substrate Rbm14-12 6.3 μM, pH 4.5
T1 construct: Cell lysates overexpressing acid ceramidase were used as the enzyme source; expressed in transfected cells
T1 sequence (Q13510 22-395): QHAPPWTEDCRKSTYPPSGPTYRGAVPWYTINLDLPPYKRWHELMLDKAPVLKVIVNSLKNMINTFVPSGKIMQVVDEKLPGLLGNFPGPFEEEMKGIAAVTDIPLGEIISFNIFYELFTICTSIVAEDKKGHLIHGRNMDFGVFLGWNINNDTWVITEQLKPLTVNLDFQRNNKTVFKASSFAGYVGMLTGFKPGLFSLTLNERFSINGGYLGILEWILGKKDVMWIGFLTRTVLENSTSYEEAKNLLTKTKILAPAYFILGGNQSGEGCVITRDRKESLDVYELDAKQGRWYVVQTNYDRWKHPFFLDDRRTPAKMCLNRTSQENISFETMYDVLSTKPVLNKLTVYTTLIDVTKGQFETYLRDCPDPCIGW
Method in brief: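 IC50 derived by four-parameter fitting of fluorescence (ex360 nm, em446 nm) produced after 1 hr in methanol/NaIO4/glycine stop buffer, pH 10.6. Reaction: 6.3 μM Rbm14-12, 1 hr RT, following 1 hr RT compound preincubation with 10 μg overexpressing-cell lysate protein in pH 4.5 NaAC/NaCl buffer.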

[1] = Compound solubility in water

Structure (SMILES): CN1C[C@@H]2C[C@H]1CN2c1cccc2c1ncn2C(=O)NCCCc1ccccc1 [Example 244, 4-((1S,4S)-5-Methyl-2,5-diazabicyclo[2.2.1]heptan-2-yl)-N-(3-phenylpropyl)-1H-benzo[d]imidazole-1-carboxamide]
- IC50 (acid ceramidase): < 0.2 µM
- solubility [1]: 0.03 mg/mL (≈ 77 µM)

Structure (SMILES): CN1CC2CC(C1)N2c1cccc2c1ncn2C(=O)NCCCc1ccccc1 [Example 245, 4-(3-Methyl-3,6-diazabicyclo[3.1.1]heptan-6-yl)-N-(3-phenylpropyl)-1H-benzo[d]imidazole-1-carboxamide]
- IC50 (acid ceramidase): < 0.2 µM
- solubility [1]: 0.032 mg/mL (≈ 82.2 µM)

Structure (SMILES): CN1C[C@H]2C[C@@H]1CN2c1cccc2c1ncn2C(=O)NCCCc1ccccc1 [Example 246, 4-((1R,4R)-5-Methyl-2,5-diazabicyclo[2.2.1]heptan-2-yl)-N-(3-phenylpropyl)-1H-benzo[d]imidazole-1-carboxamide]
- IC50 (acid ceramidase): < 0.2 µM
- solubility [1]: 0.029 mg/mL (≈ 74.5 µM)

Structure (SMILES): CN1CC2CCC1CN2c1cccc2c1ncn2C(=O)NCCCc1ccccc1 (stereo not drawn) [Example 247, 4-(5-Methyl-2,5-diazabicyclo[2.2.2]octan-2-yl)-N-(3-phenylpropyl)-1H-benzo[d]imidazole-1-carboxamide]
- IC50 (acid ceramidase): < 0.2 µM
- solubility [1]: 0.028 mg/mL (≈ 69.4 µM)

Structure (SMILES): O=C(NCCCc1ccccc1)n1cnc2c(N3CCC(F)(F)CC3)cccc21 [Example 248, 4-(4,4-Difluoropiperidin-1-yl)-N-(3-phenylpropyl)-1H-benzo[d]imidazole-1-carboxamide]
- IC50 (acid ceramidase): < 0.2 µM
- solubility [1]: 0.001 mg/mL (≈ 2.51 µM)

Structure (SMILES): CCN1CCN(c2cccc3c2ncn3C(=O)NCCCc2ccccc2)CC1 [Example 249, 4-(4-Ethylpiperazin-1-yl)-N-(3-phenylpropyl)-1H-benzo[d]imidazole-1-carboxamide]
- IC50 (acid ceramidase): < 0.2 µM
- solubility [1]: 0.012 mg/mL (≈ 30.6 µM)

Structure (SMILES): CN1CCN(c2cccc3c2ncn3C(=O)NCCCc2ccccc2)CC12CC2 [Example 250, 4-(4-Methyl-4,7-diazaspiro[2.5]octan-7-yl)-N-(3-phenylpropyl)-1H-benzo[d]imidazole-1-carboxamide]
- IC50 (acid ceramidase): < 0.2 µM
- solubility [1]: 0.023 mg/mL (≈ 57 µM)

Structure (SMILES): CN1CC(N2CCN(c3cccc4c3ncn4C(=O)NCCCc3ccccc3)CC2)C1 [Example 251, 4-(4-(1-Methylazetidin-3-yl)piperazin-1-yl)-N-(3-phenylpropyl)-1H-benzo[d]imidazole-1-carboxamide]
- IC50 (acid ceramidase): < 0.2 µM
- solubility [1]: 0.035 mg/mL (≈ 80.9 µM)

Structure (SMILES): O=C1CN(c2cccc3c2ncn3C(=O)NCCCc2ccccc2)CCN1C1CC1 [Example 252, 4-(4-Cyclopropyl-3-oxopiperazin-1-yl)-N-(3-phenylpropyl)-1H-benzo[d]imidazole-1-carboxamide]
- IC50 (acid ceramidase): < 0.2 µM
- solubility [1]: 0.001 mg/mL (≈ 2.4 µM)

Structure (SMILES): C[C@@H](CCNC(=O)n1cnc2c(N3CCN(C)CC3)cccc21)c1ccccc1 [Example 253a, (S)-4-(4-Methylpiperazin-1-yl)-N-(3-phenylbutyl)-1H-benzo[d]imidazole-1-carboxamide]
- IC50 (acid ceramidase): < 0.2 µM
- solubility [1]: 0.026 mg/mL (≈ 66.4 µM)

Structure (SMILES): C[C@H](CCNC(=O)n1cnc2c(N3CCN(C)CC3)cccc21)c1ccccc1 [Example 253b, (R)-4-(4-methylpiperazin-1-yl)-N-(3-phenylbutyl)-1H-benzo[d]imidazole-1-carboxamide]
- IC50 (acid ceramidase): < 0.2 µM
- solubility [1]: 0.027 mg/mL (≈ 69 µM)

Structure (SMILES): CN1CCN(c2cccc3c2ncn3C(=O)NCCCC2(C(F)(F)F)CC2)CC1 [Example 254, 4-(4-Methylpiperazin-1-yl)-N-(3-(1-(trifluoromethyl)cyclopropyl)propyl)-1H-benzo[d]imidazole-1-carboxamide]
- IC50 (acid ceramidase): < 0.2 µM
- solubility [1]: 0.02 mg/mL (≈ 48.8 µM)

Structure (SMILES): CN1CCN(c2cccc3c2ncn3C(=O)NCCCC(F)(F)F)CC1 [Example 255, 4-(4-Methylpiperazin-1-yl)-N-(4,4,4-trifluorobutyl)-1H-benzo[d]imidazole-1-carboxamide]
- IC50 (acid ceramidase): 0.2 to 1 µM
- solubility [1]: 0.035 mg/mL (≈ 94.8 µM)

Structure (SMILES): CN1CCN(c2cccc3c2ncn3C(=O)NCC2CCC(F)(F)CC2)CC1 [Example 256, N-((4,4-Difluorocyclohexyl)methyl)-4-(4-methylpiperazin-1-yl)-1H-benzo[d]imidazole-1-carboxamide]
- IC50 (acid ceramidase): 0.2 to 1 µM
- solubility [1]: 0.024 mg/mL (≈ 61.3 µM)

Structure (SMILES): CN1CCN(c2cccc3c2ncn3C(=O)NCCOc2ccccc2)CC1 [Example 257, 4-(4-Methylpiperazin-1-yl)-N-(2-phenoxyethyl)-1H-benzo[d]imidazole-1-carboxamide]
- IC50 (acid ceramidase): < 0.2 µM
- solubility [1]: 0.019 mg/mL (≈ 50.1 µM)

Structure (SMILES): CN1CCN(c2cccc3c2ncn3C(=O)NCCC2CCC(F)(F)C2)CC1 (stereo not drawn) [Example 258, N-(2-(3,3-Difluorocyclopentyl)ethyl)-4-(4-methylpiperazin-1-yl)-1H-benzo[d]imidazole-1-carboxamide]
- IC50 (acid ceramidase): < 0.2 µM
- solubility [1]: 0.034 mg/mL (≈ 86.9 µM)

Structure (SMILES): CN1CCN(c2cccc3c2ncn3C(=O)NCCC2CCCC2(F)F)CC1 (stereo not drawn) [Example 259, N-(2-(2,2-Difluorocyclopentyl)ethyl)-4-(4-methylpiperazin-1-yl)-1H-benzo[d]imidazole-1-carboxamide]
- IC50 (acid ceramidase): 0.2 to 1 µM
- solubility [1]: 0.021 mg/mL (≈ 53.6 µM)

Structure (SMILES): CN1CCN(c2cccc3c2ncn3C(=O)NCCCC2CC(F)(F)C2)CC1 [Example 260, N-(3-(3,3-Difluorocyclobutyl)propyl)-4-(4-methylpiperazin-1-yl)-1H-benzo[d]imidazole-1-carboxamide]
- IC50 (acid ceramidase): 0.2 to 1 µM
- solubility [1]: 0.031 mg/mL (≈ 79.2 µM)

Structure (SMILES): CCN1CCC(c2cccc3c2ncn3C(=O)NCCCc2ccccc2)C1 (stereo not drawn) [Example 261, 4-(1-Ethylpyrrolidin-3-yl)-N-(3-phenylpropyl)-1H-benzo[d]imidazole-1-carboxamide]
- IC50 (acid ceramidase): < 0.2 µM
- solubility [1]: 0.026 mg/mL (≈ 69.1 µM)

Structure (SMILES): O=C(NCCCc1ccccc1)n1cnc2c(CCCN3CCC3)cccc21 [Example 262, 4-(3-(Azetidin-1-yl)propyl)-N-(3-phenylpropyl)-1H-benzo[d]imidazole-1-carboxamide]
- IC50 (acid ceramidase): < 0.2 µM
- solubility [1]: 0.021 mg/mL (≈ 55.8 µM)

Structure (SMILES): CC1(N)CCN(c2cccc3c2ncn3C(=O)NCCCc2ccccc2)CC1 [Example 263, 4-(4-Amino-4-methylpiperidin-1-yl)-N-(3-phenylpropyl)-1H-benzo[d]imidazole-1-carboxamide]
- IC50 (acid ceramidase): < 0.2 µM
- solubility [1]: 0.025 mg/mL (≈ 63.9 µM)

Structure (SMILES): CN(C)C1CCN(c2cccc3c2ncn3C(=O)NCCCc2ccccc2)C1 (stereo not drawn) [Example 264, 4-(3-(Dimethylamino)pyrrolidin-1-yl)-N-(3-phenylpropyl)-1H-benzo[d]imidazole-1-carboxamide]
- IC50 (acid ceramidase): < 0.2 µM
- solubility [1]: 0.021 mg/mL (≈ 53.6 µM)

Structure (SMILES): O=C(NCCCc1ccccc1)n1cnc2c(N3CC4CNCC4C3)cccc21 (stereo not drawn) [Example 265, 4-(Hexahydropyrrolo[3,4-c]pyrrole-2(1H)-yl)-N-(3-phenylpropyl)-1H-benzo[d]imidazole-1-carboxamide]
- IC50 (acid ceramidase): < 0.2 µM
- solubility [1]: 0.027 mg/mL (≈ 69.3 µM)

Structure (SMILES): CN1CC2CN(c3cccc4c3ncn4C(=O)NCCCc3ccccc3)CC2C1 (stereo not drawn) [Example 266, 4-(5-Methylhexahydropyrrolo[3,4-c]pyrrol-2(1H)-yl)-N-(3-phenylpropyl)-1H-benzo[d]imidazole-1-carboxamide]
- IC50 (acid ceramidase): < 0.2 µM
- solubility [1]: 0.034 mg/mL (≈ 84.3 µM)

Structure (SMILES): CN1CCC(c2cccc3c2ncn3C(=O)NCCCc2ccccc2)C1 (stereo not drawn) [Example 267, 4-(1-Methylpyrrolidin-3-yl)-N-(3-phenylpropyl)-1H-benzo[d]imidazole-1-carboxamide]
- IC50 (acid ceramidase): < 0.2 µM
- solubility [1]: 0.025 mg/mL (≈ 69 µM)

Structure (SMILES): CNC1CCN(c2cccc3c2ncn3C(=O)NCCCc2ccccc2)C1 (stereo not drawn) [Example 268, 4-(3-(Methylamino)pyrrolidin-1-yl)-N-(3-phenylpropyl)-1H-benzo[d]imidazole-1-carboxamide]
- IC50 (acid ceramidase): < 0.2 µM
- solubility [1]: 0.017 mg/mL (≈ 45 µM)

Structure (SMILES): CN1CCCN(c2cccc3c2ncn3C(=O)NCCCc2ccccc2)CC1 [Example 269, 4-(4-Methyl-1,4-diazepan-1-yl)-N-(3-phenylpropyl)-1H-benzo[a]imidazole-1-carboxamide]
- IC50 (acid ceramidase): < 0.2 µM
- solubility [1]: 0.021 mg/mL (≈ 53.6 µM)

Structure (SMILES): CN1CC(c2cccc3c2ncn3C(=O)NCCCc2ccccc2)C1 [Example 270, 4-(1-Methylazetidin-3-yl)-N-(3-phenylpropyl)-1H-benzo[d]imidazole-1-carboxamide]
- IC50 (acid ceramidase): < 0.2 µM
- solubility [1]: 0.032 mg/mL (≈ 91.8 µM)

Structure (SMILES): CN1CCC2CCN(c3cccc4c3ncn4C(=O)NCCCc3ccccc3)CC21 (stereo not drawn) [Example 271, 4-(1-Methyloctahydro-6H-pyrrolo[2,3-c]pyridin-6-yl)-N-(3-phenylpropyl)-1H-benzo[d]imidazole-1-carboxamide]
- IC50 (acid ceramidase): < 0.2 µM
- solubility [1]: 0.022 mg/mL (≈ 52.7 µM)

Structure (SMILES): CN(C)CC1CN(c2cccc3c2ncn3C(=O)NCCCc2ccccc2)C1 [Example 272, 4-(3-((Dimethylamino)methyl)azetidin-1-yl)-N-(3-phenylpropyl)-1H-benzo[d]imidazole-1-carboxamide]
- IC50 (acid ceramidase): < 0.2 µM
- solubility [1]: 0.021 mg/mL (≈ 53.6 µM)

Structure (SMILES): O=C(NCCCc1ccccc1)n1cnc2c(N3CC(C(F)(F)F)C3)cccc21 [Example 273, N-(3-Phenylpropyl)-4-(3-(trifluoromethyl)azetidin-1-yl)-1H-benzo[d]imidazole-1-carboxamide]
- IC50 (acid ceramidase): < 0.2 µM
- solubility [1]: 0.0002 mg/mL (≈ 0.497 µM)

Structure (SMILES): O=C1CCC2CN(c3cccc4c3ncn4C(=O)NCCCc3ccccc3)CCN12 (stereo not drawn) [Example 275, 4-(6-Oxohexahydropyrrolo[1,2-a]pyrazin-2(1H)-yl)-N-(3-phenylpropyl)-1H-benzo[d]imidazole-1-carboxamide]
- IC50 (acid ceramidase): < 0.2 µM
- solubility [1]: 0.015 mg/mL (≈ 35.9 µM)

Structure (SMILES): CN1CCN(C2CN(c3cccc4c3ncn4C(=O)NCCCc3ccccc3)C2)CC1 [Example 276, 4-(3-(4-Methylpiperazin-1-yl)azetidin-1-yl)-N-(3-phenylpropyl)-1H-benzo[d]imidazole-1-carboxamide]
- IC50 (acid ceramidase): < 0.2 µM
- solubility [1]: 0.028 mg/mL (≈ 64.7 µM)
